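Five compound concentrations were applied to cells in 96-well plates for 48 hours; endpoints were derived by simple linear interpolation of the resulting dose-response curve. TGI denotes the concentration required for complete inhibition of growth.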 Where a SMILES comes first, the peptide text is derived from it. [ ]: non-standard residue; d: D form. The star is where a group is joined. ξ: configuration not given here. Cbz = O=C(OCc1ccccc1)*; ξK = NCCCCC(N)C(=O)O
Key:
Experiment in all cases: NCI-60 cell line screen, 48 h
RXF 393 renal = tested on: RXF 393 renal
SNB-19 CNS = tested on: SNB-19 CNS
UO-31 renal = tested on: UO-31 renal
PC-3 prostate = tested on: PC-3 prostate
SK-MEL-28 melanoma = tested on: SK-MEL-28 melanoma
MDA-MB-435 = tested on: MDA-MB-435
HOP-92 NSCLC = tested on: HOP-92 NSCLC
OVCAR-3 ovarian = tested on: OVCAR-3 ovarian
A549 NSCLC = tested on: A549 NSCLC
OVCAR-4 ovarian = tested on: OVCAR-4 ovarian
CCRF-CEM leukemia = tested on: CCRF-CEM leukemia
NCI-H460 lung = tested on: NCI-H460 lung
MALME-3M melanoma = tested on: MALME-3M melanoma
K-562 leukemia = tested on: K-562 leukemia
SF-539 CNS = tested on: SF-539 CNS
SK-MEL-2 melanoma = tested on: SK-MEL-2 melanoma
OVCAR-5 ovarian = tested on: OVCAR-5 ovarian
786-0 renal = tested on: 786-0 renal
NCI-H23 lung = tested on: NCI-H23 lung
MDA-MB-231 breast = tested on: MDA-MB-231 breast
HCT-116 colon = tested on: HCT-116 colon
SNB-75 CNS = tested on: SNB-75 CNS
EKVX NSCLC = tested on: EKVX NSCLC
RPMI-8226 leukemia = tested on: RPMI-8226 leukemia
UACC-257 melanoma = tested on: UACC-257 melanoma
SK-MEL-5 melanoma = tested on: SK-MEL-5 melanoma
OVCAR-8 ovarian = tested on: OVCAR-8 ovarian
SR leukemia = tested on: SR leukemia
UACC-62 melanoma = tested on: UACC-62 melanoma
LOX IMVI melanoma = tested on: LOX IMVI melanoma
HOP-62 NSCLC = tested on: HOP-62 NSCLC
COLO 205 colon = tested on: COLO 205 colon
MDA-N = tested on: MDA-N
SN12C renal = tested on: SN12C renal
HS 578T breast = tested on: HS 578T breast
DU-145 prostate = tested on: DU-145 prostate
KM12 colon = tested on: KM12 colon
SF-295 CNS = tested on: SF-295 CNS
HT29 colon = tested on: HT29 colon
NCI/ADR-RES ovarian = tested on: NCI/ADR-RES ovarian
T-47D breast = tested on: T-47D breast
NCI-H226 lung = tested on: NCI-H226 lung
U251 CNS = tested on: U251 CNS
A498 renal = tested on: A498 renal
SF-268 CNS = tested on: SF-268 CNS
SW-620 colon = tested on: SW-620 colon
SK-OV-3 ovarian = tested on: SK-OV-3 ovarian
HCT-15 colon = tested on: HCT-15 colon
CAKI-1 renal = tested on: CAKI-1 renal
MOLT-4 leukemia = tested on: MOLT-4 leukemia
HCC-2998 colon = tested on: HCC-2998 colon
M14 melanoma = tested on: M14 melanoma
NCI-H522 lung = tested on: NCI-H522 lung
ACHN renal = tested on: ACHN renal
MCF7 breast = tested on: MCF7 breast
IGROV1 ovarian = tested on: IGROV1 ovarian

Measured: TGI

NCCCCC(NC(=O)OCc1ccccc1)C(=O)NCC(N)=O (stereo unspecified) (Cbz-[ξK]-Gly-NH2)
> 100 µM: RXF 393 renal | SNB-19 CNS | UO-31 renal | PC-3 prostate | SK-MEL-28 melanoma | MDA-MB-435 | HOP-92 NSCLC | OVCAR-3 ovarian | A549 NSCLC | OVCAR-4 ovarian | CCRF-CEM leukemia | NCI-H460 lung | MALME-3M melanoma | K-562 leukemia | SF-539 CNS | SK-MEL-2 melanoma | OVCAR-5 ovarian | 786-0 renal | NCI-H23 lung | MDA-MB-231 breast | HCT-116 colon | SNB-75 CNS | EKVX NSCLC | RPMI-8226 leukemia | UACC-257 melanoma | SK-MEL-5 melanoma | OVCAR-8 ovarian | SR leukemia | UACC-62 melanoma | LOX IMVI melanoma | HOP-62 NSCLC | COLO 205 colon | MDA-N | SN12C renal | HS 578T breast | DU-145 prostate | KM12 colon | SF-295 CNS | HT29 colon | NCI/ADR-RES ovarian | T-47D breast | NCI-H226 lung | U251 CNS | A498 renal | SF-268 CNS | SW-620 colon | SK-OV-3 ovarian | HCT-15 colon | CAKI-1 renal | MOLT-4 leukemia | HCC-2998 colon | M14 melanoma | NCI-H522 lung | ACHN renal | MCF7 breast | IGROV1 ovarian
